Measurements from patent US12459922B2 (Gilead Sciences, Inc., priority 2022, dated 2025).

system: endogenous cellular STAT1 (phosphorylated at Tyr701) in NCI-H1373 cells; assay: Phospho-STAT1 (Tyr701) LANCE Ultra TR-FRET Detection Assay; type: cell-based; conditions: Homo sapiens, NCI-H1373, 48 h, phospho-STAT1 (Tyr701) induction, read-out: NH1373 pSTAT1 EC50

EC50 | Compound
30.4 nM | Nc1nc(-c2cc3ncn(CCC[C@H](COC(F)F)Nc4cn[nH]c(=O)c4C(F)(F)F)c(=O)c3cc2F)ccc1C(F)F [Example 395, (R)-7-(6-amino-5-(difluoromethyl)pyridin-2-yl)-3-(5-(difluoromethoxy)-4-((6-oxo-5-(trifluoromethyl)-1,6-dihydropyridazin-4-yl)amino)pentyl)-6-fluoroquinazolin-4(3H)-one]
48.8 nM | O=c1[nH]ncc(N[C@H](CCCn2ccc3cc(-c4ncc(C(F)(F)F)s4)c(F)cc3c2=O)COC(F)F)c1C(F)(F)F [Example 396, (R)-2-(5-(difluoromethoxy)-4-((6-oxo-5-(trifluoromethyl)-1,6-dihydropyridazin-4-yl)amino)pentyl)-7-fluoro-6-(5-(trifluoromethyl)thiazol-2-yl)isoquinolin-1(2H)-one]
10.1 nM | Nc1nc(-c2cc3ccn(CCC[C@H](COC(F)F)Nc4cn[nH]c(=O)c4C(F)(F)F)c(=O)c3c(F)c2F)ncc1OC(F)F [Example 397, (R)-6-(4-amino-5-(difluoromethoxy)pyrimidin-2-yl)-2-(5-(difluoromethoxy)-4-((6-oxo-5-(trifluoromethyl)-1,6-dihydropyridazin-4-yl)amino)pentyl)-7,8-difluoroisoquinolin-1(2H)-one]
424 nM | O=c1[nH]ncc(N[C@H](CCCn2cnc3cc(C4=CCCCO4)c(F)cc3c2=O)COC(F)F)c1C(F)(F)F [Example 398, (R)-3-(5-(difluoromethoxy)-4-((6-oxo-5-(trifluoromethyl)-1,6-dihydropyridazin-4-yl)amino)pentyl)-7-(3,4-dihydro-2H-pyran-6-yl)-6-fluoroquinazolin-4(3H)-one]
2.98 nM | O=c1[nH]ncc(N[C@H](CCCn2ccc3cc(-c4ccc(C(F)(F)F)cn4)c(F)cc3c2=O)COC(F)F)c1C(F)(F)F [Example 399, (R)-2-(5-(difluoromethoxy)-4-((6-oxo-5-(trifluoromethyl)-1,6-dihydropyridazin-4-yl)amino)pentyl)-7-fluoro-6-(5-(trifluoromethyl)pyridin-2-yl)isoquinolin-1(2H)-one]
56.8 nM | Nc1cc(-c2cc3ccn(CCC[C@H](COC(F)F)Nc4cn[nH]c(=O)c4C(F)(F)F)c(=O)c3cc2F)cnc1C(F)(F)F [Example 400, (R)-6-(5-amino-6-(trifluoromethyl)pyridin-3-yl)-2-(5-(difluoromethoxy)-4-((6-oxo-5-(trifluoromethyl)-1,6-dihydropyridazin-4-yl)amino)pentyl)-7-fluoroisoquinolin-1(2H)-one]
1.63 nM | O=c1[nH]ncc(N[C@H](CCCn2ccc3cc(-c4ccc(C(F)F)cn4)c(F)cc3c2=O)COC(F)F)c1C(F)(F)F [Example 401, (R)-2-(5-(difluoromethoxy)-4-((6-oxo-5-(trifluoromethyl)-1,6-dihydropyridazin-4-yl)amino)pentyl)-6-(5-(difluoromethyl)pyridin-2-yl)-7-fluoroisoquinolin-1(2H)-one]
3.13 nM | O=c1[nH]ncc(N[C@H](CCCn2cnc3cc(-c4ccc(C(F)F)cn4)c(F)cc3c2=O)COC(F)F)c1C(F)(F)F [Example 402, (R)-3-(5-(difluoromethoxy)-4-((6-oxo-5-(trifluoromethyl)-1,6-dihydropyridazin-4-yl)amino)pentyl)-7-(5-(difluoromethyl)pyridin-2-yl)-6-fluoroquinazolin-4(3H)-one]
3.65 nM | O=c1[nH]ncc(N[C@H](CCCn2cnc3cc(-c4ccc(C(F)(F)F)cn4)c(F)cc3c2=O)COC(F)F)c1C(F)(F)F [Example 403, (R)-3-(5-(difluoromethoxy)-4-((6-oxo-5-(trifluoromethyl)-1,6-dihydropyridazin-4-yl)amino)pentyl)-6-fluoro-7-(5-(trifluoromethyl)pyridin-2-yl)quinazolin-4(3H)-one]
1.57 nM | O=c1[nH]ncc(N[C@H](CCCn2cnc3nc(-c4ccc(C(F)(F)F)cn4)ccc3c2=O)COC(F)F)c1C(F)(F)F [Example 404, (R)-3-(5-(difluoromethoxy)-4-((6-oxo-5-(trifluoromethyl)-1,6-dihydropyridazin-4-yl)amino)pentyl)-7-(5-(trifluoromethyl)pyridin-2-yl)pyrido[2,3-d]pyrimidin-4(3H)-one]
9.67 nM | Nc1nc(-c2ccc3c(=O)n(CCC[C@H](COC(F)F)Nc4cn[nH]c(=O)c4C(F)(F)F)ccc3n2)ccc1C(F)(F)F [Example 405, (R)-2-(6-amino-5-(trifluoromethyl)pyridin-2-yl)-6-(5-(difluoromethoxy)-4-((6-oxo-5-(trifluoromethyl)-1,6-dihydropyridazin-4-yl)amino)pentyl)-1,6-naphthyridin-5(6H)-one]
1.72 nM | O=c1[nH]ncc(N[C@H](CCCn2ccc3cc(-c4ccc(C(F)F)cn4)c(F)c(F)c3c2=O)COC(F)F)c1C(F)(F)F [Example 406, (R)-2-(5-(difluoromethoxy)-4-((6-oxo-5-(trifluoromethyl)-1,6-dihydropyridazin-4-yl)amino)pentyl)-6-(5-(difluoromethyl)pyridin-2-yl)-7,8-difluoroisoquinolin-1(2H)-one]
1.99 nM | O=c1[nH]ncc(N[C@H](CCCn2ccc3cc(-c4ccc(C(F)(F)F)cn4)c(F)c(F)c3c2=O)COC(F)F)c1C(F)(F)F [Example 407, (R)-2-(5-(difluoromethoxy)-4-((6-oxo-5-(trifluoromethyl)-1,6-dihydropyridazin-4-yl)amino)pentyl)-7,8-difluoro-6-(5-(trifluoromethyl)pyridin-2-yl)isoquinolin-1(2H)-one]
4.11 nM | O=c1[nH]ncc(N[C@H](CCCn2ccc3nc(-c4ccc(C(F)F)cn4)ccc3c2=O)COC(F)F)c1C(F)(F)F [Example 408, (R)-6-(5-(difluoromethoxy)-4-((6-oxo-5-(trifluoromethyl)-1,6-dihydropyridazin-4-yl)amino)pentyl)-2-(5-(difluoromethyl)pyridin-2-yl)-1,6-naphthyridin-5(6H)-one]
4.49 nM | Nc1nc(-c2cc3ccn(CCC[C@H](COC(F)F)Nc4cn[nH]c(=O)c4C(F)(F)F)c(=O)c3cc2F)ccc1F [Example 409, (R)-6-(6-amino-5-fluoropyridin-2-yl)-2-(5-(difluoromethoxy)-4-((6-oxo-5-(trifluoromethyl)-1,6-dihydropyridazin-4-yl)amino)pentyl)-7-fluoroisoquinolin-1(2H)-one]
0.99 nM | Nc1nc(-c2cc3ccn(CCC[C@H](COC(F)F)Nc4cn[nH]c(=O)c4C(F)(F)F)c(=O)c3cc2F)ccc1Cl [Example 410, (R)-6-(6-amino-5-chloropyridin-2-yl)-2-(5-(difluoromethoxy)-4-((6-oxo-5-(trifluoromethyl)-1,6-dihydropyridazin-4-yl)amino)pentyl)-7-fluoroisoquinolin-1(2H)-one]
5.28 nM | N#Cc1ccc(-c2cc3ccn(CCC[C@H](COC(F)F)Nc4cn[nH]c(=O)c4C(F)(F)F)c(=O)c3cc2F)nc1N [Example 411, (R)-2-amino-6-(2-(5-(difluoromethoxy)-4-((6-oxo-5-(trifluoromethyl)-1,6-dihydropyridazin-4-yl)amino)pentyl)-7-fluoro-1-oxo-1,2-dihydroisoquinolin-6-yl)nicotinonitrile]
17.4 nM | Cc1ccc(-c2cc3ccn(CCC[C@H](COC(F)F)Nc4cn[nH]c(=O)c4C(F)(F)F)c(=O)c3cc2F)nc1N [Example 412, (R)-6-(6-amino-5-methylpyridin-2-yl)-2-(5-(difluoromethoxy)-4-((6-oxo-5-(trifluoromethyl)-1,6-dihydropyridazin-4-yl)amino)pentyl)-7-fluoroisoquinolin-1(2H)-one]
4.59 nM | O=c1[nH]ncc(N[C@H](CCCn2cnc3cc(-c4cnc(C5CC5)cn4)c(F)cc3c2=O)COC(F)F)c1C(F)(F)F [Example 413, (R)-7-(5-cyclopropylpyrazin-2-yl)-3-(5-(difluoromethoxy)-4-((6-oxo-5-(trifluoromethyl)-1,6-dihydropyridazin-4-yl)amino)pentyl)-6-fluoroquinazolin-4(3H)-one]
10.9 nM | Nc1nc(-c2cc3ncn(CCC[C@H](COC(F)F)Nc4cn[nH]c(=O)c4C(F)(F)F)c(=O)c3cc2F)nc(C2CC2)c1Cl [Example 414, (R)-7-(4-amino-5-chloro-6-cyclopropylpyrimidin-2-yl)-3-(5-(difluoromethoxy)-4-((6-oxo-5-(trifluoromethyl)-1,6-dihydropyridazin-4-yl)amino)pentyl)-6-fluoroquinazolin-4(3H)-one]
2.49 nM | COc1ncc(-c2cc3ccn(CCC[C@H](COC(F)F)Nc4cn[nH]c(=O)c4C(F)(F)F)c(=O)c3cc2F)nc1N [Example 415, (R)-6-(6-amino-5-methoxypyrazin-2-yl)-2-(5-(difluoromethoxy)-4-((6-oxo-5-(trifluoromethyl)-1,6-dihydropyridazin-4-yl)amino)pentyl)-7-fluoroisoquinolin-1(2H)-one]
6.78 nM | Nc1nc(-c2cc3ccn(CCC[C@H](COC(F)F)Nc4cn[nH]c(=O)c4C(F)(F)F)c(=O)c3cc2F)cnc1C(F)(F)F [Example 416, (R)-6-(6-amino-5-(trifluoromethyl)pyrazin-2-yl)-2-(5-(difluoromethoxy)-4-((6-oxo-5-(trifluoromethyl)-1,6-dihydropyridazin-4-yl)amino)pentyl)-7-fluoroisoquinolin-1(2H)-one]
2.28 nM | O=c1[nH]ncc(N[C@H](CCCn2ccc3cc(-c4cnc(C(F)(F)F)cn4)c(F)cc3c2=O)COC(F)F)c1C(F)(F)F [Example 417, (R)-2-(5-(difluoromethoxy)-4-((6-oxo-5-(trifluoromethyl)-1,6-dihydropyridazin-4-yl)amino)pentyl)-7-fluoro-6-(5-(trifluoromethyl)pyrazin-2-yl)isoquinolin-1(2H)-one]
4.58 nM | Nc1nc(-c2cc3ccn(CCC[C@H](COC(F)F)Nc4cn[nH]c(=O)c4C(F)(F)F)c(=O)c3c(F)c2F)cnc1C(F)(F)F [Example 418, (R)-6-(6-amino-5-(trifluoromethyl)pyrazin-2-yl)-2-(5-(difluoromethoxy)-4-((6-oxo-5-(trifluoromethyl)-1,6-dihydropyridazin-4-yl)amino)pentyl)-7,8-difluoroisoquinolin-1(2H)-one]
